The record followed here is patent publication US7579504B2, “ABCA1 elevating compounds” (Gilead Sciences, Inc., priority 2005, dated 2009).

The test system of this assay is ABCA1 mRNA. Put plainly: ABCA1 mRNA induction in THP-1 cells, QuantiGene branched DNA assay. Format: cell-based. The note with it: 18-20 hours; for fold induction at 10 µM: Homo sapiens, read-out: ABCA1 Induction Fold Increase over DMSO Vehicle. As to the method:
Modulation of expression of ABCA1 mRNA levels by the compounds of the invention was determined in the following assays.
Induction of ABC1 in THP-1 cells, was measured using QuantiGene® branched DNA assay as per manufacturer's instructions. Cultures of THP-1 were grown to subconfluence in DMEM/10% FBS before replacement with DMEM/BSA and 10 and 3 μM concentrations of the test compounds in DMSO for 18-20 hours. After treatment of cells with compounds, the cells were lysed with lysis buffer at 37° C. for 20 minutes. The cell lysate and ABCA1 specific probe (Genospectra, Inc., Fremont, Calif.) mix were added to the 96 well capture plate and hybridized at 53° C. for 16-18 hours. The signal was amplified using the amplifier and label probes provided with the QuantiGene® assay followed by addition of a luminescent alkaline phosphatase substrate, dioxitane. Luminescence was quantified in Victor V plate reader.
Step 1 • Cells are lysed to release mRNA in the presence of target probes. Target mRNA from lysed cells was then captured by hybridization and transferred to the Capture Plate.
Step 2 • Signal amplification was performed by hybridization of the bDNA Amplifier and Label Probe.
Step 3 • Addition of chemiluminescence substrate yielded a QuantiGene® signal proportional to the amount of mRNA present in the sample.
Table 1 presents the relative fold increase in ABCA1 expression over DMSO for compounds of the invention when tested at a concentration of 10 μM.

Take `Cc1ccc(CNC(=O)C2CCC(CN(Cc3ccccc3)S(=O)(=O)c3c(F)c(F)c(F)c(F)c3F)CC2)cc1` (centres unmarked) [Compound 37, N-[(4-methylphenyl)methyl][4-({[(2,3,4,5,6-pentafluorophenyl)sulfonyl]benzylamino}methyl)cyclohexyl]carboxamide]: the fold induction at 10 µM came to 3.

On to `Cc1ccc(CNC(=O)C2CCC(CN(Cc3ccccc3)S(=O)(=O)c3ccccc3C(F)(F)F)CC2)cc1` (centres unmarked) [Compound 35, N-[(4-methylphenyl)methyl]{4-[(benzyl{[2-(trifluoromethyl)phenyl]sulfonyl}amino)methyl]cyclohexyl}carboxamide], for which the fold induction at 10 µM worked out at 6.1. As for `Cc1ccc(CNC(=O)[C@H]2CC[C@H](CN(Cc3ccccc3C)S(=O)(=O)c3ccccc3)CC2)cc1` [Compound 1, N-[(4-methylphenyl)methyl][4-({[(2-methylphenyl)methyl](phenylsulfonyl)amino}methyl)cyclohexyl]carboxamide], the fold induction at 10 µM was determined as 4.2. Still for that read-out and setting: the same measure for `Cc1ccc(CNC(=O)C2CCC(CN(Cc3ccccc3)S(=O)(=O)c3cc(C(F)(F)F)cc(C(F)(F)F)c3)CC2)cc1` (centres unmarked) [Compound 24, {4-[({[3,5-bis(trifluoromethyl)phenyl]sulfonyl}benzylamino)methyl]cyclohexyl}-N-[(4-methylphenyl)methyl]carboxamide]: 0.9.

For `COc1ccc(S(=O)(=O)N(Cc2ccccc2)CC2CCC(C(=O)NCc3ccc(C)cc3)CC2)cc1OC` (centres unmarked) [Compound 18, [4-({[(3,4-dimethoxyphenyl)sulfonyl]benzylamino}methyl)cyclohexyl]-N-[(4-methylphenyl)methyl]carboxamide], the fold induction at 10 µM stood at 1.6. In the case of `Cc1ccc(CNC(=O)C2CCC(CN(Cc3ccccc3)S(=O)(=O)c3c(F)cccc3F)CC2)cc1` (centres unmarked) [Compound 29, [4-({[(2,6-difluorophenyl)sulfonyl]benzylamino}methyl)cyclohexyl]-N-[(4-methylphenyl)methyl]carboxamide], the fold induction at 10 µM was 6.9. On the same count and under the same terms, the result for `Cc1ccc(CNC(=O)C2CCC(CN(Cc3ccccc3)S(=O)(=O)c3ccc(F)cc3C)CC2)cc1` (centres unmarked) [Compound 33, [4-({[(4-fluoro-2-methylphenyl)sulfonyl]benzylamino}methyl)cyclohexyl]-N-[(4-methylphenyl)methyl]carboxamide] reads 4.1; that for `Cc1ccc(CNC(=O)C2CCC(CN(Cc3ccccc3)S(=O)(=O)c3ccc(Cl)cc3)CC2)cc1` (centres unmarked) [Compound 44, [4-({[(4-chlorophenyl)sulfonyl]benzylamino}methyl)cyclohexyl]-N-[(4-methylphenyl)methyl]carboxamide], 3.2. The same measure, in the same setting: the same measure for `Cc1ccc(CNC(=O)C2CCC(CN(Cc3ccccc3)S(=O)(=O)c3ccc(Cl)cc3F)CC2)cc1` (centres unmarked) [Compound 11, [4-({[(4-chloro-2-fluorophenyl)sulfonyl]benzylamino}methyl)cyclohexyl]-N-[(4-methylphenyl)methyl]carboxamide]: 1.9. Take `Cc1ccc(CNC(=O)C2CCC(CN(Cc3ccccc3)S(=O)(=O)c3c(C)nn(C)c3C)CC2)cc1` (centres unmarked) [Compound 47, N-[(4-methylphenyl)methyl][4-({benzyl[(1,3,5-trimethylpyrazol-4-yl)sulfonyl]amino}methyl)cyclohexyl]carboxamide]: the fold induction at 10 µM came out at 3.5.

Turning to `Cc1ccc(CNC(=O)C2CCC(CN(Cc3ccccc3)S(=O)(=O)c3ccccc3Cl)CC2)cc1` (centres unmarked) [Compound 22, [4-({[(2-chlorophenyl)sulfonyl]benzylamino}methyl)cyclohexyl]-N-[(4-methylphenyl)methyl]carboxamide], the fold induction at 10 µM turned out to be 4.1.

With `COc1ccc(S(=O)(=O)N(Cc2ccccc2)CC2CCC(C(=O)NCc3ccc(C)cc3)CC2)cc1` (centres unmarked) [Compound 45, [4-({[(4-methoxyphenyl)sulfonyl]benzylamino}methyl)cyclohexyl]-N-[(4-methylphenyl)methyl]carboxamide], the fold induction at 10 µM amounted to 4.3. Turning to `Cc1ccc(CNC(=O)C2CCC(CN(Cc3ccccc3)S(=O)(=O)c3cc(Cl)cc(Cl)c3)CC2)cc1` (centres unmarked) [Compound 32, [4-({[(3,5-dichlorophenyl)sulfonyl]benzylamino}methyl)cyclohexyl]-N-[(4-methylphenyl)methyl]carboxamide], the fold induction at 10 µM stood at 4. Regarding `Cc1ccc(CNC(=O)C2CCC(CN(Cc3ccccc3)S(=O)(=O)c3ccc(Cl)c(Cl)c3)CC2)cc1` (centres unmarked) [Compound 42, [4-({[(3,4-dichlorophenyl)sulfonyl]benzylamino}methyl)cyclohexyl]-N-[(4-methylphenyl)methyl]carboxamide], the fold induction at 10 µM is 2.6. Same read-out and setting: the result for `Cc1ccc(CNC(=O)C2CCC(CN(Cc3ccccc3)S(=O)(=O)c3c(C)cc(C)cc3C)CC2)cc1` (centres unmarked) [Compound 34, N-[(4-methylphenyl)methyl][4-({benzyl[(2,4,6-trimethylphenyl)sulfonyl]amino}methyl)cyclohexyl]carboxamide] reads 2.1; that for `COc1cccc(S(=O)(=O)N(Cc2ccccc2)CC2CCC(C(=O)NCc3ccc(C)cc3)CC2)c1` (centres unmarked) [Compound 7, [4-({[(3-methoxyphenyl)sulfonyl]benzylamino}methyl)cyclohexyl]-N-[(4-methylphenyl)methyl]carboxamide], 5.4. Still for that read-out and setting: the result for `Cc1ccc(CNC(=O)C2CCC(CN(Cc3ccccc3)S(=O)(=O)c3ccc(F)c(F)c3)CC2)cc1` (centres unmarked) [Compound 12, [4-({[(3,4-difluorophenyl)sulfonyl]benzylamino}methyl)cyclohexyl]-N-[(4-methylphenyl)methyl]carboxamide] reads 2.6. Turning to `Cc1ccc(CNC(=O)C2CCC(CN(Cc3ccccc3)S(=O)(=O)c3cc(F)ccc3C)CC2)cc1` (centres unmarked) [Compound 26, [4-({[(5-fluoro-2-methylphenyl)sulfonyl]benzylamino}methyl)cyclohexyl]-N-[(4-methylphenyl)methyl]carboxamide], the fold induction at 10 µM was found to be 4.3. The same measure, in the same setting: the result for `Cc1ccc(CNC(=O)C2CCC(CN(Cc3ccccc3)S(=O)(=O)c3ccc4ccccc4c3)CC2)cc1` (centres unmarked) [Compound 41, N-[(4-methylphenyl)methyl](4-{[(2-naphthylsulfonyl)benzylamino]methyl}cyclohexyl)carboxamide] reads 5.2; that for `Cc1ccc(CNC(=O)C2CCC(CN(Cc3ccccc3)S(=O)(=O)c3ccc(F)cc3F)CC2)cc1` (centres unmarked) [Compound 10, [4-({[(2,4-difluorophenyl)sulfonyl]benzylamino}methyl)cyclohexyl]-N-[(4-methylphenyl)methyl]carboxamide], 2.2; that for `Cc1ccc(CNC(=O)C2CCC(CN(Cc3ccccc3)S(=O)(=O)c3ccc(C)c(F)c3)CC2)cc1` (centres unmarked) [Compound 39, [4-({[(3-fluoro-4-methylphenyl)sulfonyl]benzylamino}methyl)cyclohexyl]-N-[(4-methylphenyl)methyl]carboxamide], 4. The same measure, in the same setting: the result for `Cc1ccc(CNC(=O)C2CCC(CN(Cc3ccccc3)S(=O)(=O)c3ccc(C(C)(C)C)cc3)CC2)cc1` (centres unmarked) [Compound 13, {4-[({[4-(tert-butyl)phenyl]sulfonyl}benzylamino)methyl]cyclohexyl}-N-[(4-methylphenyl)methyl]carboxamide] reads 2.7; that for `Cc1ccc(CNC(=O)C2CCC(CN(Cc3ccccc3)S(=O)(=O)c3cccc(Cl)c3F)CC2)cc1` (centres unmarked) [Compound 46, [4-({[(3-chloro-2-fluorophenyl)sulfonyl]benzylamino}methyl)cyclohexyl]-N-[(4-methylphenyl)methyl]carboxamide], 4.5; that for `Cc1ccc(CNC(=O)C2CCC(CN(Cc3ccc(F)cc3)S(=O)(=O)c3ccccc3)CC2)cc1` (centres unmarked) [Compound 3, [4-({[(4-fluorophenyl)methyl](phenylsulfonyl)amino}methyl)cyclohexyl]-N-[(4-methylphenyl)methyl]carboxamide], 4.8. In the case of “N-[(4-methylphenyl)methyl](4-{[(naphthylsulfonyl)benzylamino]methyl}cyclohexyl)carboxamide [Compound 38]”, the “ABCA1 Induction Fold Increase over DMSO Vehicle” value (10 μM) is reported as 5.0 fold. For the compound `Cc1ccc(CNC(=O)C2CCC(CN(Cc3ccccc3)S(=O)(=O)c3ccccc3)CC2)cc1` (centres unmarked) [Compound 4, N-[(4-methylphenyl)methyl](4-{[benzyl(phenylsulfonyl)amino]methyl}cyclohexyl)carboxamide], the fold induction at 10 µM worked out at 3.8.

As for `CC(=O)Nc1nc(C)c(S(=O)(=O)N(Cc2ccccc2)CC2CCC(C(=O)NCc3ccc(C)cc3)CC2)s1` (centres unmarked) [Compound 30, N-[4-methyl-5-({[(4-{N-[(4-methylphenyl)methyl]carbamoyl}cyclohexyl)methyl]benzylamino}sulfonyl)-1,3-thiazol-2-yl]acetamide], the fold induction at 10 µM was found to be 3.9. Regarding `CC(=O)Nc1ccc(S(=O)(=O)N(Cc2ccccc2)CC2CCC(C(=O)NCc3ccc(C)cc3)CC2)cc1` (centres unmarked) [Compound 8, N-[4-({[(4-{N-[(4-methylphenyl)methyl]carbamoyl}cyclohexyl)methyl]benzylamino}sulfonyl)phenyl]acetamide], the fold induction at 10 µM was 3.1.

With `Cc1ccc(CNC(=O)C2CCC(CN(Cc3ccccc3)S(=O)(=O)c3cccc(F)c3)CC2)cc1` (centres unmarked) [Compound 31, [4-({[(3-fluorophenyl)sulfonyl]benzylamino}methyl)cyclohexyl]-N-[(4-methylphenyl)methyl]carboxamide], the fold induction at 10 µM was 6.7.
